Laboratory results: article PMC9225785, “Design, synthesis, and biological evaluation of a novel series of 2-(2,6-dioxopiperidin-3-yl)isoquinoline-1,3(2H,4H)-dione derivatives as cereblon modulators” (Journal of Enzyme Inhibition and Medicinal Chemistry, 2022)
Read-outs that look alike come from different tables or passages of the source.

Columns and labels:
U2932 cells = test: CCK8 antiproliferative assay, U2932; conditions: Homo sapiens, U2932, 72 h, read-out: IC50 (μM ± SD) U2932
NCI-H929 cells [1] = test: CCK8 antiproliferative assay, NCI-H929; conditions: Homo sapiens, NCI-H929, 72 h, read-out: IC50 (μM ± SD) NCI-H929
PBMC toxicity by CCK8 = assay type: cell-based, human; conditions: human, PBMCs isolated from healthy donors, CCK-8, 20.0 µM, relative to control cells; read-out: PBMC cell viability (%)
Experimental: (§1) And same time, the toxicity of the compounds on the normal human cell line PBMC was also tested by CCK8.
(§2) The NCI-H929 cells were cultured in RPMI-1640 media supplemented with 10% FBS, 100 U/mL penicillin–100 µg/mL streptomycin, and 0.05 mM 2-mercaptoethanol. The U2932 cells were cultured in RPMI-1640 media supplemented with 10% FBS and 100 U/mL penicillin–100 µg/mL streptomycin. The PBMCs were isolated from healthy donors.
(§3) For the cell proliferation experiments, 1.0 × 10^5 cells were first seeded in the 96-well culture plate and incubated overnight. Compounds tested were serially diluted in the corresponding media and then added to the well of 96-well plate in a final volume of 100 µL and then the cells were incubated for 72 h at 37 °C. Finally, 10 µL of CCK-8 was added to each well for 1–4 h, and the absorbance values were read at 450 nm in a Microplate Reader (ELx-800, BioTek Instruments, Winooski, VT). The IC50 value for each compound was calculated at the basis of the number of viable cells using GraphPad Prism 5.0 software (San Diego, CA).

TNF-α = TNF-α ELISA assay in LPS stimulated PBMC; assay type: cell-based, human; conditions: read-out: IC50 (μM ± SD) TNF-α
Experimental: Previous studies have reported IMiDs stimulate immunomodulatory activity main through the TNF-α inhibition[9]^,[10]. In this test, the effect of the synthesised compounds on TNF-α in LPS stimulated human peripheral blood mononuclear cell (PBMC) was evaluated (Table 1). The SAR of TNF-α inhibition was similar to the antiproliferative activity. […]
PBMC (4 × 10^5 cells) were incubated in the 96-well culture plate and stimulated by 2 µg/mL LPS. The level of TNF-α was checked by standard ELISA (R&D Systems, Minneapolis, MN). Analysis was performed by following the manufacture’s procedure for each ELISA kit. The test samples were assessed in triplicate and absorbance was taken on a Microplate Reader (ELx-800, BioTek Instruments, Winooski, VT) at 450 nm. The IC50 value for each compound was calculated by comparison with standard curves with purified recombinant TNF-α using GraphPad Prism 5.0 software (San Diego, CA).

NCI-H929 cells [2] = test: Annexin V-FITC/PI apoptosis assay; assay type: cell-based; conditions: for B1: necrotic cells / B2: late apoptosis / B3: live cells / B4: early apoptosis: 72 h; for apoptotic events: 72 h (early + late apoptosis)
Experimental: The IMiDs were reported to induce apoptosis through activation of caspase 8 in MM cells. Accordingly, the ability of the selected compound 10a to induce apoptosis in NCI-H929 cells was investigated using annexin V fluorescein isothiocyanate (FITC)/propidium iodide (PI) staining assay.
(§4) Flow cytometry was used to analyse effects of the compounds tested on cell cycle (PI staining) and apoptosis (Annexin V-FITC and PI staining). Stained cells were analysed on a Flow Cytometer (BD Biosciences, Franklin Lakes, NJ), and the data were analysed using the Cell Quest software.

NCI-H929 cells [3] = test: Cell cycle analysis (PI staining, flow cytometry); assay type: cell-based; conditions: 48 h; for cell cycle arrest: NCI-H929, 0.5-5.0 µM
Experimental: The NCI-H929 cells were treated with each of the compounds at 0, 0.5, 1.0, and 5.0 µM for 48 h. Following this treatment, the PI-stained cells were analysed and the results are outlined in Figure 5.
as §4

[4] = target: T1, CRBN (His-tagged CRBN-DDB1 complex) (Homo sapiens, UniProt Q96SW2); test: TR-FRET CRBN binding assay (displacement of Cy5-labeled thalidomide)
T1 construct: purchased Abcam ab235611
Experimental: His-tagged CRBN-DDB1 complex (Abcam, Cambridge, UK, catalogue no. ab235611) 60 nM was mixed with Eu-anti-His Tag antibody 3 nM (Thermo Fisher, Waltham, MA, catalogue no. PV5596) in a final buffer containing 20 mM HEPES pH 7.0, 150 mM NaCl, and 0.005% Tween-20. The solution was then mixed with Cy5-labeled thalidomide 10 nM and various concentrations of compounds, and then was incubated at room temperature for 1 h. FRET signals were measured on an EnVision plate reader by exciting at 340 nm and recording emission at both 615 nm (no FRET control) and 665 nm (FRET signals) with a 60 µs delay. […] Quantitative loss of FRET efficiency as a function of compound concentrations was fitted by GraphPad Prism 5.0 (San Diego, CA) and calculated the IC50.

IKZF3 = target: T2, IKZF3 (Homo sapiens, UniProt Q96SW2+Q9UKT9); test: Immunoblot analysis of IKZF3 degradation in NCI-H929 cells; assay type: cell-based; conditions: for IKZF3 degradation: 72 h, immunoblot
T2 construct: endogenous in cells; host or cells: NCI-H929
Experimental: (§5) Subsequent proteasome degradation of these transcription factors kills MM cells. Accordingly, we used the immunoblot assay to measure the IKZF1 and IKZF3 proteins degradation in the current study.
(§6) For immunoblot analysis, NCI-H929 cells were treated with the tested compounds at the indicated concentrations for various times, collected, and lysed in RIPA buffer in the presence of protease inhibitors on ice for 30 min. The protein from each sample was quantitated using a BCA protein assay kit, and was separated by SDS-PAGE and then transferred onto the PVDF membrane. The membranes were probed with specific primary antibodies at 4 °C overnight, followed by incubation with IRDye®680 goat anti-mouse secondary antibodies. The signals were acquired using the Odyssey Infrared Imaging System (LI-COR, Lincoln, NE).

IKZF1 = target: T3, IKZF1 (Homo sapiens, UniProt Q13422+Q96SW2); test: Immunoblot analysis of IKZF1 degradation in NCI-H929 cells; assay type: cell-based; conditions: for IKZF1 degradation: 72 h, immunoblot
T3 construct: endogenous in cells; host or cells: NCI-H929
Experimental: as §5, §6

PBMC = PBMC toxicity by CCK8; assay type: cell-based, human
Experimental: as §1, §2, §3

[5] = TNF-α level in LPS stimulated human PBMC, ELISA
[6] = NCI-H929, indicated concentrations
[7] = NCI-H929, 100 nM bortezomib in combination with compound 10a (10 µM)

T2 sequence (Q9UKT9 whole entry): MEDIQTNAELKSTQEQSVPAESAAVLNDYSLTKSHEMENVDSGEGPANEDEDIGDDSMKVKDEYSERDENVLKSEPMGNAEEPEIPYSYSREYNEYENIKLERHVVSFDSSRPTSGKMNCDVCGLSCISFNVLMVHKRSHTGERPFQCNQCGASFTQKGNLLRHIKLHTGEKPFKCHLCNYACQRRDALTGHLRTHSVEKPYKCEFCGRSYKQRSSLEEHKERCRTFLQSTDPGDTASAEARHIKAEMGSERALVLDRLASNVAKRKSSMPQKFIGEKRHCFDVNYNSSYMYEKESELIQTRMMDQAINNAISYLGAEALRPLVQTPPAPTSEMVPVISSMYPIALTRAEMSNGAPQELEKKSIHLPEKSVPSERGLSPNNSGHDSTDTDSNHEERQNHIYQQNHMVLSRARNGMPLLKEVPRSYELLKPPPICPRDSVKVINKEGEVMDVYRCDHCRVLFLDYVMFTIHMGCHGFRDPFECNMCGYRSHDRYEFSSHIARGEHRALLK
T2 sequence (Q96SW2 whole entry): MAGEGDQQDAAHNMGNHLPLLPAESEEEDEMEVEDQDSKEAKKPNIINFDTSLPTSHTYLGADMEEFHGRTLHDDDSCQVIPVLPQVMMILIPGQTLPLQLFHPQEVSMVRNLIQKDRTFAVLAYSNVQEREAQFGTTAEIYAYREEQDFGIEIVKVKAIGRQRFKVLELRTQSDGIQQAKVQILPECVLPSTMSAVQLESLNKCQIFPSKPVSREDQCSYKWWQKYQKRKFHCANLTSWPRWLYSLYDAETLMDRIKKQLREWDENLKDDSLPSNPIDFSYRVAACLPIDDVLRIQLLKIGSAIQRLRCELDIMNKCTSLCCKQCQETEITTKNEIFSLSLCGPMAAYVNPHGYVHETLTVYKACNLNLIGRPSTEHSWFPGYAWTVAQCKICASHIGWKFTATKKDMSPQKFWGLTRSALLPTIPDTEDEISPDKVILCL
T2 sequence (Q16531 whole entry partner): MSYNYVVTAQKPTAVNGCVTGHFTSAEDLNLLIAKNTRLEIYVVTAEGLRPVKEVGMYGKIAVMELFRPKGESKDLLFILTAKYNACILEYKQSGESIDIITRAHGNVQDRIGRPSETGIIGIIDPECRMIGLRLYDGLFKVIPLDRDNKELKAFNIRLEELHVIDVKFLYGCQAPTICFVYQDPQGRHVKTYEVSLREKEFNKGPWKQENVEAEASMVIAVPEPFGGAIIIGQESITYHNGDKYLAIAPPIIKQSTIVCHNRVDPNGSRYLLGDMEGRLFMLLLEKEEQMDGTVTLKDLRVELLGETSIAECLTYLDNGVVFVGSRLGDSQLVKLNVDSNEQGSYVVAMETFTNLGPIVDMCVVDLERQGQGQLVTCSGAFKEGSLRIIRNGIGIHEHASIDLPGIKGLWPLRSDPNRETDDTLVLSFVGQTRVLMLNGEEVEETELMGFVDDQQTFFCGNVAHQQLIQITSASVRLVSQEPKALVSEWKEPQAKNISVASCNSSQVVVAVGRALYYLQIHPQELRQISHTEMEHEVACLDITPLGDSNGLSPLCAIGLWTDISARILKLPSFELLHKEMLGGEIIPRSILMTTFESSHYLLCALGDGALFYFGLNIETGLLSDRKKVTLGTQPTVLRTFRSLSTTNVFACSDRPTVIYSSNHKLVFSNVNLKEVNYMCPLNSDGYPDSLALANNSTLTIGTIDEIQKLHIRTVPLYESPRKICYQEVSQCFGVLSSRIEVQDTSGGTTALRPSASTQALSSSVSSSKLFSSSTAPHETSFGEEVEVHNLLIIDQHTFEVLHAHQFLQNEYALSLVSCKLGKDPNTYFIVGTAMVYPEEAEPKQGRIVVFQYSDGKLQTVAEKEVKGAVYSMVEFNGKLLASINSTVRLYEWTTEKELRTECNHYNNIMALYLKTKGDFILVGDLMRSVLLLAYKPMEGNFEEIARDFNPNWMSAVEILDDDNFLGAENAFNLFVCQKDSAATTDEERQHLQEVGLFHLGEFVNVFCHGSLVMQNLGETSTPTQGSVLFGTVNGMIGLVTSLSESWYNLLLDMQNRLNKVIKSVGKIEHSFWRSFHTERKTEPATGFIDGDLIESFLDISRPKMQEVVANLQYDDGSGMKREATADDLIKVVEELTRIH
T3 sequence (Q13422 whole entry): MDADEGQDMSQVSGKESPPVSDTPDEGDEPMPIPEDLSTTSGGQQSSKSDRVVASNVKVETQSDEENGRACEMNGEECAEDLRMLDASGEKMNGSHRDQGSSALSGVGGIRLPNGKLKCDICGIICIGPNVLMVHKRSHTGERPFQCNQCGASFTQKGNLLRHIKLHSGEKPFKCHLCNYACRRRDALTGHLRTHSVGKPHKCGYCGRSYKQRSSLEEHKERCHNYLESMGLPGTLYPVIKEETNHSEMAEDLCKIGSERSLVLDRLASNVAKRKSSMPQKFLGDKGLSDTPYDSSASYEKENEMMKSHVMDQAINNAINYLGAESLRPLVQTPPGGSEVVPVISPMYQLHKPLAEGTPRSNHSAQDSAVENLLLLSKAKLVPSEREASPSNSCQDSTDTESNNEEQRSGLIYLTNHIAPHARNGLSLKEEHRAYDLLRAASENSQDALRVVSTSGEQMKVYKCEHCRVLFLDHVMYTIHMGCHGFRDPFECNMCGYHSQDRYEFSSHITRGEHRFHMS
T3 sequence (Q96SW2 whole entry): as the sequence (Q96SW2 whole entry) above
T3 sequence (Q16531 whole entry partner): as the sequence (Q16531 whole entry partner) above
T1 sequence (Q96SW2 whole entry): as the sequence (Q96SW2 whole entry) above
T1 sequence (Q16531 whole entry partner): as the sequence (Q16531 whole entry partner) above

| Compound | IC50 (U2932 cells) [µM] | IC50 (NCI-H929 cells [1]) [µM] | viability at 72 h, 20 µM (PBMC toxicity by CCK8) [%] | IC50 (TNF-α; [5]) [µM] | also measured |
| --- | --- | --- | --- | --- | --- |
| O=C1CCC(N2C(=O)Cc3ccccc3C2=O)C(=O)N1 (stereo not shown) [Compound 3a, 2-(2,6-dioxopiperidin-3-yl)isoquinoline-1,3(2H,4H)-dione] | > 50 | 32.2 ± 1.42 | 99 | > 50 | – |
| COc1ccc2c(c1)C(=O)N(C1CCC(=O)NC1=O)C(=O)C2 (stereo not shown) [Compound 3b, 2-(2,6-Dioxopiperidin-3-yl)-7-methoxyisoquinoline-1,3(2H,4H)-dione] | 36.4 ± 1.22 | 28.2 ± 0.92 | 98 | 43.8 ± 1.88 | – |
| COc1ccc2c(c1)C(=O)N(C1CCC(=O)NC1=O)C(=O)C2(C)C (stereo not shown) [Compound 3c, 2-(2,6-Dioxopiperidin-3-yl)-7-methoxy-4,4-dimethylisoquinoline-1,3(2H,4H)-dione] | > 50 | > 50 | 100 | > 50 | – |
| O=C1CCC(N2C(=O)Cc3cccc([N+](=O)[O-])c3C2=O)C(=O)N1 (stereo not shown) [Compound 9a, 2-(2,6-dioxopiperidin-3-yl)-8-nitroisoquinoline-1,3(2H,4H)-dione] | 12.2 ± 0.58 | 9.26 ± 0.56 | 94 | 5.48 ± 1.04 | – |
| Nc1cccc2c1C(=O)N(C1CCC(=O)NC1=O)C(=O)C2 (stereo not shown) [Compound 10a, 8-amino-2-(2,6-dioxopiperidin-3-yl)isoquinoline-1,3(2H,4H)-dione] | 5.86 ± 0.12 | 2.25 ± 0.09 | 94 | 0.76 ± 0.08 | B1: necrotic cells (NCI-H929 cells [2]; NCI-H929, 1 μM): 0.1%; B2: late apoptosis (NCI-H929 cells [2]; NCI-H929, 1 μM): 15.6%; B3: live cells (NCI-H929 cells [2]; NCI-H929, 1 μM): 70.4%; B4: early apoptosis (NCI-H929 cells [2]; NCI-H929, 1 μM): 13.9%; apoptotic events (NCI-H929 cells [2]; NCI-H929, 1 µM): 29.5%; B1: necrotic cells (NCI-H929 cells [2]; NCI-H929, 5 μM): 0.2%; B2: late apoptosis (NCI-H929 cells [2]; NCI-H929, 5 μM): 21.3%; B3: live cells (NCI-H929 cells [2]; NCI-H929, 5 μM): 65.1%; B4: early apoptosis (NCI-H929 cells [2]; NCI-H929, 5 μM): 13.3%; apoptotic events (NCI-H929 cells [2]; NCI-H929, 5 µM): 34.6%; cells in G0/G1 cell cycle (NCI-H929 cells [3]; NCI-H929, 5.0 µM): 42.9%; cell cycle arrest (NCI-H929 cells [3]): induce G0/G1 cell cycle arrest; IC50 [4]: 4.83 µM; IKZF3 degradation (IKZF3; NCI-H929, 10 µM): completely degrade; IKZF3 degradation (IKZF3; [6]): induced the degradation; IKZF1 degradation (IKZF1; NCI-H929, 10 µM): completely degrade; IKZF1 degradation (IKZF1; [6]): induced the degradation; toxicity to normal human cell line PBMC (PBMC; CCK8, 20 µM): nearly no toxicity; PBMC cell viability (%) (PBMC; CCK-8, 20.0 µM, relative to control cells, 20 µM): 99% |
| Nc1ccc2c(c1)C(=O)N(C1CCC(=O)NC1=O)C(=O)C2 (stereo not shown) [Compound 10b, 7-Amino-2-(2,6-dioxopiperidin-3-yl)isoquinoline-1,3(2H,4H)-dione] | 20.6 ± 0.82 | 16.3 ± 0.56 | 98 | 21.3 ± 1.26 | – |
| Nc1ccc2c(c1)CC(=O)N(C1CCC(=O)NC1=O)C2=O (stereo not shown) [Compound 10c, 6-Amino-2–(2,6-dioxopiperidin-3-yl)isoquinoline-1,3(2H,4H)-dione] | 26.3 ± 0.76 | 18.7 ± 0.83 | 100 | 38.5 ± 1.38 | – |
| Nc1cccc2c1CC(=O)N(C1CCC(=O)NC1=O)C2=O (stereo not shown) [Compound 10d, 5-Amino-2–(2,6-dioxopiperidin-3-yl)isoquinoline-1,3(2H,4H)-dione] | > 50 | > 50 | 99 | > 50 | – |
| CC1(C)C(=O)N(C2CCC(=O)NC2=O)C(=O)c2c(N)cccc21 (stereo not shown) [Compound 12a, 8-Amino-2–(2,6-dioxopiperidin-3-yl)-4,4-dimethylisoquinoline-1,3(2H,4H)-dione] | > 50 | > 50 | 100 | > 50 | – |
| Nc1cccc2c1C(=O)N(C1CCC(=O)NC1=O)C(=O)C21CC1 (stereo not shown) [Compound 12b, 8′-Amino-2′-(2,6-dioxopiperidin-3-yl)-1′H-spiro[cyclopropane-1,4′-isoquinoline]-1′,3′(2′H)-dione] | > 50 | > 50 | 100 | > 50 | – |
| Nc1cccc2c1CN(C1CCC(=O)NC1=O)C2=O (stereo not shown) [Lenalidomide, reference compound] | 3.24 ± 0.11 | 1.12 ± 0.06 | 86 | – | B1: necrotic cells (NCI-H929 cells [2]; NCI-H929, 1 μM): 0.2%; B2: late apoptosis (NCI-H929 cells [2]; NCI-H929, 1 μM): 18.1%; B3: live cells (NCI-H929 cells [2]; NCI-H929, 1 μM): 68.6%; B4: early apoptosis (NCI-H929 cells [2]; NCI-H929, 1 μM): 13.1%; apoptotic events (NCI-H929 cells [2]; NCI-H929, 1 µM): 31.2%; B1: necrotic cells (NCI-H929 cells [2]; NCI-H929, 5 μM): 0.1%; B2: late apoptosis (NCI-H929 cells [2]; NCI-H929, 5 μM): 20.8%; B3: live cells (NCI-H929 cells [2]; NCI-H929, 5 μM): 56.0%; B4: early apoptosis (NCI-H929 cells [2]; NCI-H929, 5 μM): 23.1%; apoptotic events (NCI-H929 cells [2]; NCI-H929, 5 µM): 43.9%; cell cycle arrest (NCI-H929 cells [3]): induce G0/G1 cell cycle arrest; IC50 (TNF-α; Homo sapiens, PBMC): 0.13 ± 0.02 µM |
| CC(C)C[C@H](NC(=O)[C@H](Cc1ccccc1)NC(=O)c1cnccn1)B(O)O [bortezomib, reference compound] | – | – | – | – | effect on IKZF3 degradation induced by compound 10a (IKZF3; [7]): can block the degradation; effect on IKZF1 degradation induced by compound 10a (IKZF1; [7]): can block the degradation |
